Measured values published in patent US10336762B2 (priority 2017, dated 2019).

Assays:
TNFα = assay: cells; format: cell-based, human; details: Homo sapiens, Monocyte, LPS-stimulated human monocytes, TNFα content; read-out: EC50 TNF
IRAK4 enzyme = IRAK4 enzyme (Homo sapiens (Human), UniProt Q9NWZ3); assay: biochemical; format: biochemical; details: IRAK4 enzyme, TR-FRET, 500 μM ATP
IRAK4 enzyme, sequence (Q9NWZ3 whole entry): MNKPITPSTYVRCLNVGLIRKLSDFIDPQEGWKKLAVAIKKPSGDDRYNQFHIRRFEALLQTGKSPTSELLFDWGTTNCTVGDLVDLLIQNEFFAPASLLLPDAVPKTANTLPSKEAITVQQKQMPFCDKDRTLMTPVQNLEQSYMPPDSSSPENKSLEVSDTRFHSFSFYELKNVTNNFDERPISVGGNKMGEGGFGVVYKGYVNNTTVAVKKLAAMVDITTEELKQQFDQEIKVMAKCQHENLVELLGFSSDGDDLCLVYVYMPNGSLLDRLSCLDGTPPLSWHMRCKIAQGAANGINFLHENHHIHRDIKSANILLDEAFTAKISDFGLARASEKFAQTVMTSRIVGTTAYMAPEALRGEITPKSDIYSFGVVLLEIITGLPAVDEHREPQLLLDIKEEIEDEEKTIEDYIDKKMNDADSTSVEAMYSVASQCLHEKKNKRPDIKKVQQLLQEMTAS

CC(C)(O)[C@H](F)CNC(=O)c1cnc(-c2ccc3cc(C#N)cnn23)cc1N[C@@H]1CCOC[C@@H]1F [Example 57, 6-(3-cyanopyrrolo[1,2-b]pyridazin-7-yl)-N-((R)-2-fluoro-3-hydroxy-3-methylbutyl)-4-(((3R,4R)-3-fluorotetrahydro-2H-pyran-4-yl)amino)nicotinamide]
EC50 (TNFα): 46 nM
IC50 (IRAK4 enzyme): < 1 nM

Cn1cc(Nc2cc(-c3ccc4cc(C#N)cnn34)ncc2C(=O)NC[C@@H](F)C(C)(C)O)nn1 [Example 58, (R)-6-(3-cyanopyrrolo[1,2-b]pyridazin-7-yl)-N-(2-fluoro-3-hydroxy-3-methylbutyl)-4-((1-methyl-1H-1,2,3-triazol-4-yl)amino)nicotinamide]
EC50 (TNFα): 91 nM
IC50 (IRAK4 enzyme): < 1 nM

CC(C)(O)[C@H](F)CNC(=O)c1cnc(-c2ccc3cc(C#N)cnn23)cc1Nc1cnsc1 [Example 59, (R)-6-(3-cyanopyrrolo[1,2-b]pyridazin-7-yl)-N-(2-fluoro-3-hydroxy-3-methylbutyl)-4-(isothiazol-4-ylamino)nicotinamide]
EC50 (TNFα): 57 nM
IC50 (IRAK4 enzyme): < 1 nM

COC(=O)C1CC2(CC(NC(=O)c3cnc(-c4ccc5cc(C#N)cnn45)cc3NC(C)C)C2)C1 (centres unmarked) [Example 60, methyl 6-(6-(3-cyano-pyrrolo[1,2-b]pyridazin-7-yl)-4-(isopropylamino)nicotinamido) spiro[3.3]heptane-2-carboxylate]
EC50 (TNFα): 512 nM
IC50 (IRAK4 enzyme): 1 nM

CC(C)(O)[C@H](F)CNC(=O)c1cnc(-c2ccc3cc(C#N)cnn23)cc1N[C@@H]1CCC[C@@H](O)C1 [Example 61, 6-(3-cyanopyrrolo[1,2-b]pyridazin-7-yl)-N-((R)-2-fluoro-3-hydroxy-3-methylbutyl)-4-(((1R,3R)-3-hydroxycyclohexyl)amino) nicotinamide]
EC50 (TNFα): 89 nM
IC50 (IRAK4 enzyme): < 1 nM

CO[C@@H]1CCC[C@H](Nc2cc(-c3ccc4cc(C#N)cnn34)ncc2C(=O)NC[C@@H](F)C(C)(C)O)C1 [Example 62, 6-(3-cyanopyrrolo[1,2-b]pyridazin-7-yl)-N-((R)-2-fluoro-3-hydroxy-3-methylbutyl)-4-(((1S,3R)-3-methoxycyclohexyl)amino) nicotinamide]
EC50 (TNFα): 83 nM
IC50 (IRAK4 enzyme): < 1 nM

CC(C)(O)[C@H](F)CNC(=O)c1cnc(-c2ccc3cc(C#N)cnn23)cc1N[C@H]1CCC[C@H](O)C1 [Example 63, 6-(3-cyanopyrrolo[1,2-b]pyridazin-7-yl)-N-((R)-2-fluoro-3-hydroxy-3-methylbutyl)-4-(((1S,3S)-3-hydroxycyclohexyl)amino) nicotinamide]
EC50 (TNFα): 57 nM
IC50 (IRAK4 enzyme): < 1 nM

CC(C)(O)[C@H](F)CNC(=O)c1cnc(-c2ccc3cc(C#N)cnn23)cc1NC1CCCCC1 [Example 64, (R)-6-(3-cyanopyrrolo[1,2-b]pyridazin-7-yl)-4-(cyclohexylamino)-N-(2-fluoro-3-hydroxy-3-methylbutyl) nicotinamide]
EC50 (TNFα): 70 nM
IC50 (IRAK4 enzyme): < 1 nM

CC(C)(O)[C@H](F)CNC(=O)c1cnc(-c2ccc3cc(C#N)cnn23)cc1N[C@@H]1CCC[C@H](O)C1 [Example 65, 6-(3-cyanopyrrolo[1,2-b]pyridazin-7-yl)-N-((R)-2-fluoro-3-hydroxy-3-methylbutyl)-4-(((1R,3S)-3-hydroxycyclohexyl)amino) nicotinamide]
EC50 (TNFα): 149 nM
IC50 (IRAK4 enzyme): 2 nM

CC(C)Nc1cc(-c2ccc3cc(C#N)cnn23)ncc1C(=O)NNC(=O)C(C)(C)O [Example 66, 6-(3-cyanopyrrolo[1,2-b]pyridazin-7-yl)-N′-(2-hydroxy-2-methylpropanoyl)-4-(isopropylamino) nicotinohydrazide]
EC50 (TNFα): 458 nM
IC50 (IRAK4 enzyme): 46 nM

CC(C)(O)[C@H](F)CNC(=O)c1cnc(-c2ccc3cc(C#N)cnn23)cc1Nc1cnn(C2CC2)c1 [Example 67, (R)-6-(3-cyanopyrrolo[1,2-b]pyridazin-7-yl)-4-((1-cyclopropyl-1H-pyrazol-4-yl)amino)-N-(2-fluoro-3-hydroxy-3-methylbutyl)nicotinamide]
EC50 (TNFα): 43 nM
IC50 (IRAK4 enzyme): < 1 nM

CC(C)Nc1cc(-c2ccc3cc(C#N)cnn23)ncc1C(=O)NNCC(C)(C)O [Example 69, 6-(3-cyanopyrrolo[1,2-b]pyridazin-7-yl)-N′-(2-hydroxy-2-methylpropyl)-4-(isopropylamino) nicotinohydrazide]
EC50 (TNFα): 515 nM
IC50 (IRAK4 enzyme): 7 nM

CC(C)(O)[C@H](F)CNC(=O)c1cnc(-c2ccc3cc(C#N)cnn23)cc1Nc1cn[nH]c1 [Example 70, (R)-4-((1H-pyrazol-4-yl)amino)-6-(3-cyano-pyrrolo[1,2-b]pyridazin-7-yl)-N-(2-fluoro-3-hydroxy-3-methylbutyl)nicotinamide]
EC50 (TNFα): 47 nM
IC50 (IRAK4 enzyme): < 1 nM

CC(C)Nc1cc(-c2ccc3cc(C#N)cnn23)ncc1C(=O)NC1CS(=O)(=O)C1 [Example 71, 6-(3-cyanopyrrolo[1,2-b]pyridazin-7-yl)-N-(1,1-dioxidothietan-3-yl)-4-(isopropylamino) nicotinamide]
EC50 (TNFα): 298 nM
IC50 (IRAK4 enzyme): 9 nM

CC(C)Nc1cc(-c2ccc3cc(C#N)cnn23)ncc1C(=O)NCC1CS(=O)(=O)C1 [Example 72, 6-(3-cyanopyrrolo[1,2-b]pyridazin-7-yl)-N-((1,1-dioxidothietan-3-yl)methyl)-4-(isopropylamino) nicotinamide]
EC50 (TNFα): 159 nM
IC50 (IRAK4 enzyme): 4 nM

CC(C)Nc1cc(-c2ccc3cc(C#N)cnn23)ncc1C(=O)NCC1CCS(=O)(=O)C1 (centres unmarked) [Example 73, 6-(3-cyanopyrrolo[1,2-b]pyridazin-7-yl)-N-((1,1-dioxidotetrahydrothiophen-3-yl)methyl)-4-(isopropylamino) nicotinamide]
EC50 (TNFα): 119 nM
IC50 (IRAK4 enzyme): 3 nM

CC(C)(O)[C@H](F)CNC(=O)c1cnc(-c2ccc3cc(C#N)cnn23)cc1NCC1CCS(=O)(=O)C1 (stereo partly drawn) [Example 74, 6-(3-cyanopyrrolo[1,2-b]pyridazin-7-yl)-4-(((1,1-dioxidotetrahydrothiophen-3-yl)methyl)amino)-N-((R)-2-fluoro-3-hydroxy-3-methylbutyl) nicotinamide]
EC50 (TNFα): 1100 nM
IC50 (IRAK4 enzyme): 2 nM

CC(C)(O)[C@H](F)CNC(=O)c1cnc(-c2ccc3cc(C#N)cnn23)cc1NC1CCS(=O)(=O)CC1 [Example 75, (R)-6-(3-cyanopyrrolo[1,2-b]pyridazin-7-yl)-4-((1,1-dioxidotetrahydro-2H-thiopyran-4-yl)amino)-N-(2-fluoro-3-hydroxy-3-methylbutyl) nicotinamide]
EC50 (TNFα): 544 nM
IC50 (IRAK4 enzyme): 3 nM

CC(C)(O)[C@H](F)CNC(=O)c1cnc(-c2ccc3cc(C#N)cnn23)cc1NC1CCS(=O)(=O)C1 (stereo partly drawn) [Example 76, 6-(3-cyanopyrrolo[1,2-b]pyridazin-7-yl)-4-((1,1-dioxidotetrahydrothiophen-3-yl)amino)-N-((R)-2-fluoro-3-hydroxy-3-methylbutyl)nicotinamide]
EC50 (TNFα): 348 nM
IC50 (IRAK4 enzyme): 1 nM

CC(C)(O)[C@H](F)CNC(=O)c1cnc(-c2ccc3cc(C#N)cnn23)cc1NC1CS(=O)(=O)C1 [Example 77, (R)-6-(3-cyanopyrrolo[1,2-b]pyridazin-7-yl)-4-((1,1-dioxidothietan-3-yl)amino)-N-(2-fluoro-3-hydroxy-3-methylbutyl)nicotinamide]
EC50 (TNFα): 352 nM
IC50 (IRAK4 enzyme): 2 nM

CC(C)Nc1cc(-c2ccc3cc(C(N)=O)cnn23)ncc1C(=O)NC1CS(=O)(=O)C1 [Example 78, 7-(5-((1,1-dioxidothietan-3-yl)carbamoyl)-4-(isopropyl-amino)pyridin-2-yl)pyrrolo[1,2-b] pyridazine-3-carboxamide]
EC50 (TNFα): 1620 nM
IC50 (IRAK4 enzyme): 27 nM

CC(C)Nc1cc(-c2ccc3cc(C(N)=O)cnn23)ncc1C(=O)NCC1CS(=O)(=O)C1 [Example 79, 7-(5-(((1,1-dioxidothietan-3-yl)methyl)carbamoyl)-4-(isopropylamino)pyridin-2-yl)pyrrolo[1,2-b] pyridazine-3-carboxamide]
EC50 (TNFα): 1820 nM
IC50 (IRAK4 enzyme): 18 nM

CC(C)(O)CCNc1cc(-c2ccc3cc(C#N)cnn23)ncc1C(=O)NC[C@@H](F)C(C)(C)O [Example 80, (R)-6-(3-cyanopyrrolo[1,2-b]pyridazin-7-yl)-N-(2-fluoro-3-hydroxy-3-methylbutyl)-4-((3-hydroxy-3-methylbutyl)amino) nicotinamide]
EC50 (TNFα): 88 nM
IC50 (IRAK4 enzyme): < 1 nM

CC1(C)CC(Nc2cc(-c3ccc4cc(C#N)cnn34)ncc2C(=O)NC[C@@H](F)C(C)(C)O)CCO1 (stereo partly drawn) [Example 81, 6-(3-cyanopyrrolo[1,2-b]pyridazin-7-yl)-4-((2,2-dimethyltetrahydro-2H-pyran-4-yl)amino)-N-((R)-2-fluoro-3-hydroxy-3-methylbutyl) nicotinamide]
EC50 (TNFα): 134 nM
IC50 (IRAK4 enzyme): 1 nM

CC(C)(O)[C@H](F)CNC(=O)c1cnc(-c2ccc3cc(C#N)cnn23)cc1NC1CC2(COC2)C1 [Example 82, (R)-4-(2-oxaspiro[3.3]heptan-6-ylamino)-6-(3-cyanopyrrolo[1,2-b]pyridazin-7-yl)-N-(2-fluoro-3-hydroxy-3-methylbutyl) nicotinamide]
EC50 (TNFα): 79 nM
IC50 (IRAK4 enzyme): < 1 nM

CC(C)(O)[C@H](F)CNC(=O)c1cnc(-c2ccc3cc(C#N)cnn23)cc1NC1CCN(C2COC2)CC1 [Example 83, (R)-6-(3-cyanopyrrolo[1,2-b]pyridazin-7-yl)-N-(2-fluoro-3-hydroxy-3-methylbutyl)-4-((1-(oxetan-3-yl)piperidin-4-yl)amino) nicotinamide]
EC50 (TNFα): 221 nM
IC50 (IRAK4 enzyme): 1 nM

CC(C)Nc1cc(-c2ccc3cc(C#N)cnn23)ncc1C(=O)NCCCS(C)(=O)=O [Example 85, 6-(3-cyanopyrrolo[1,2-b]pyridazin-7-yl)-4-(isopropyl-amino)-N-(3-(methylsulfonyl)propyl) nicotinamide]
EC50 (TNFα): 67 nM
IC50 (IRAK4 enzyme): 1 nM

CC(C)Nc1cc(-c2ccc3cc(C#N)cnn23)ncc1C(=O)NC1CCN(C2COC2)CC1 [Example 86, 6-(3-cyanopyrrolo[1,2-b]pyridazin-7-yl)-4-(isopropylamino)-N-(1-(oxetan-3-yl)piperidin-4-yl) nicotinamide]
EC50 (TNFα): 321 nM
IC50 (IRAK4 enzyme): 4 nM
